Laboratory results from patent publication US20240373849A1, “INSECT NEUROPEPTIDE ANALOGUES” (THE UNIVERSITY COURT OF THE UNIVERSITY OF GLASGOW, priority 2020, published 2024).
Several values for one entry are separate records, joined by “and”; a condition that tells them apart may be missing. Equal entries are not always repeated. Square brackets hold non-standard residues; d marks the D form. NMeL = CN[C@@H](CC(C)C)C(=O)O; NMeA = CN[C@@H](C)C(=O)O; Aib = CC(C)(N)C(=O)O

Tests used:
[1] = test system: M. persicae; assay: Feeding of aphids with peptides in artificial diet (Example 1); type: in vivo, Myzus persicae
Procedure: A standard artificial diet for M. persicae was produced as described in Van Emden (2009) and provided the basal diet to which peptides were added for screening purposes. Peptides were diluted individually in the artificial diet to a pre-determined concentration.
Feeding apparatus were constructed using a set-up developed by Sadeghi et al (2009). For this, a piece of Parafilm was stretched over a Plexiglas ring (h=4 cm, Ø=3 cm) and 100 μl of the artificial diet containing the desired neuropeptide analogue was pipette onto the Parafilm membrane. A second piece of Parafilm, stretched to 4 times the original thickness, was stretched over the original layer, sandwiching the artificial diet between two layers of Parafilm. A strip of Parafilm was wrapped around the circumference of the Plexiglas ring, sealing in the diet. A plastic ring (h=1.2 cm, Ø=3.4 cm) was subsequently placed over the Parafilm layer, creating a walled chamber in which to house test aphids in contact with the Parafilm layer containing the artificial diet. Finally, a small Petri dish (h=1 cm, Ø=3.6 cm), modified for ventilation with net cloth, was placed on top of each feeding apparatus to prevent aphid escape.
To obtain aphids for use in experiments, reproducing anholocyclic adults were placed on individual excised leaves of Chinese cabbage at densities of 5 adults per leaf and allowed to reproduce for 24 h. The stem of each excised leaf was held within a 0.5 mL Eppendorf tube containing water via a punctured hole in the Eppendorf lid, and placed individually within a microcage (L=4 cm, Ø=9.5 cm). Following 24h, adults were removed and resultant first instar nymphs (<1 day old and synchronised in age to within 24h) retained. Nymphs were allowed to develop on the Chinese cabbage for 5 days. On day 5, (3rd instar) nymphs were transferred onto the artificial diet containing a neuropeptide analogue at densities of 1 per feeding chamber and monitored daily until death. Aphids were transferred to fresh artificial diet (containing neuropeptide analogue or water control) every 5 days.
The water control group was used to determine baseline lethality. Results for neuropeptide analogues were calculated as % lethality in the remaining population after adjustment for the baseline.

[2] = test system: D. suzukii larvae; assay: Drosophila suzukii larval feeding (Example 9; dose response); type: in vivo; details: for % Lethality ± SEM: Table 6, 10^−5 M, 48 hr and/or 72 h exposure (FIG. 7: AH270/PEGAH270 120 h)
Procedure: Dose response experiments were carried out for AH382, AH383, AH188, data shown for AH382 (a), AH383 (b), AH188 (c, 48 hours). Data are mean % lethality ±SEM for concentrations between 10^−4 M and 10^−7 M (a) AH382, (b) AH383 72 hours treatment; and between 10^−5 M and 10^−9 M (AH188, 3c), 48 hours treatment. The LD50 for AH382, AH383 and AH188 is 10^−6 M.
Further larval feeding assays with D. suzukii larvae were conducted as explained above in example 7. A total of 88 peptides were tested against D. suzukii larvae in 96 well plates at 10^−5 M in a final volume of 200 μl of 0.8% agarose containing 0.09% m-Cresol purple pH marker dye (Sigma) and 5% sucrose (Sigma). Controls contained dH2O (18% lethality) or native Capa-2 peptide (38% lethality) as a ‘sham’ treatment. Each peptide was assayed with a minimum of 7 to maximum 9 late L2/early L3 larvae per well, minimum n=8 wells per peptide concentration (minimum 56 larvae) and a minimum n=12 control wells (minimum 84 larvae) per plate. Larvae were assayed for lethality after 48 hr and/or 72 h exposure at 21° C. using a binocular stereomicroscope and findings recorded. Candidate peptides were also tested between 10^-4 and 10^-7 M (dose response curve).
Candidate peptides for D. suzukii with 70%-90% lethality are indicated below, in Table 6.

[3] = test system: Drosophila suzukii larvae; assay: Drosophila suzukii larval feeding (Example 8; peptide screening); type: in vivo; details: for Feeding D. suzukii, % lethality in population after adjustment for baseline: 10^−5 M, 48 hr exposure
Procedure: (§1) First to Fourth generations of peptides were produced with varying structures and tested for CAPA receptor agonist activity, and screened for lethality in vivo against D. suzukii and M. persicae as per methods in example 2 and example 8. The top performing peptides were selected and gave rise to the list of CAPA1 and CAPA2 peptides provided above in Table 1 which were then further tested in the following applied examples.
Peptides were tested at concentrations ranging from [10^−4 M] to [10^−7 M] in a final volume of 200 μl of 0.8% agarose containing 0.09% m-Cresol purple pH marker dye (Sigma) and 5% sucrose (Sigma).
Agarose was melted in dH2O, before addition of sucrose and dye. The agarose/dye solution was then allowed to cool to 60° C. 96 well plates (flat-bottomed 3596 TC-plates; Corning) containing 20 μl volumes of neuropeptide per well were prepared, and 180 μl agarose/dye solution dispensed into each well via a Distriman repetitive micro-pipettor (Gilson). Controls contained 20 μl dH2O as a ‘sham’ treatment with 180 μl of the 0.8% agarose/dye solution. Plates were agitated at 800 rpm, to ensure mixing, at 60° C. (Eppendorf Thermomixer C). Plates were then allowed to cool, and agarose/dye solution solidify, prior to use.
Each peptide was assayed with a minimum of 7 to maximum 9 late L2/early L3 Spotted wing Drosophila, Drosophila suzukii, (feeding) larvae per well, minimum n=8 wells per peptide concentration and a minimum n=12 control wells per plate. The selected larvae were first washed 2× in ice cold Drosophila Schneider's liquid medium (ThermoFisher) before insertion into wells to remove extraneous food. After complete insertion of all larvae the plates were covered with breathable sealing membrane for multi-well plates (Sigma).
Larvae were assayed for lethality after 48 hr exposure at 21° C. and findings recorded. During examination the assay plate was kept on ice, to reduce larval locomotor activity (wandering), and larvae in each well were examined using a binocular stereomicroscope (Zeiss).
The water control group was used to determine baseline lethality. Results for neuropeptide analogues were calculated as % lethality in the remaining population after adjustment for the baseline. Results are shown in Tables 7 and 8 below, and in FIG. 1.

[4] = test system: Myzus persicae aphids; assay: Topical application by spraying, Potter Spray Tower (Example 3); type: in vivo; details: 48 hours post spray
Procedure: Aphids were exposed to test peptides in the absence of additional external stress conditions.
Brassica rapa (Chinese cabbage; Wong Bok) were infested with 30 adult Myzus persicae aphids per plant. Aphids were left at least 2 hours to settle and begin feeding from the host plant.
Potter Spray Tower (Burkard Manufacturing) was ‘primed’ by spraying 1000 μl of liquid coating the inside of the tower. Vehicle spray only (Croda ATPlus UEP 100 LQ-(CQ) 0.1% v/v) was used as a control.
Spray volumes for all solutions were 3000 μl. […] After spraying was completed the plant was allowed to rest on the spray platform for 30 seconds to allow settling of the sprayed chemical.
Post peptide application, each condition was placed into its own individual Bugdorm (Watkins and Doncaster, 44545), to prevent repulsed or displaced aphids moving from one condition to another. Numbers of alive and dead aphids on the plant were counted 48 hours post spray, and the presence of any fresh nymphs noted. Plants were watered prior to spraying but not afterwards to eliminate the possibility of drowning any aphids present or washing off the sprayed liquid.
The vehicle control group was used to determine baseline lethality. Results for neuropeptide analogues were calculated as % lethality in the remaining population after adjustment for the baseline.

[5] = test system: M. persicae; assay: Feeding of aphids with peptides in artificial diet (Example 2; peptide screening, honeydew); type: in vivo, Myzus persicae; details: for mean lethality / lethality observed in one sample of 30 insects: M. persicae feeding, 10^−5 M, 120 hours; for lethality observed in one sample of 30 insects: single sample
Excerpt: as §1
The aphid feeding protocol was devised according to Sadeghi et al (2009) as explained in example 1. Feeding discs were designed and manufactured as above. A standard sucrose-based artificial diet for M. persicae (30 aphids per chamber, 3 chambers per experiment unless otherwise stated) was produced as described in example 1 (Sadeghi et al, J. Insect Science, 2009) and provided the basal diet to which peptides were added for screening purposes. Peptides were diluted individually in the artificial diet to 10^−5 M. Lethality was scored after up to 120 hours (IRAC guidelines for aphid testing).
Membrane discs were also included to collect ‘honeydew’ secreted by feeding aphids and stained with ninhydrin to observe feeding patterns.
Comparison of purple stain in controls to treated aphids, show there is very little colour on many membranes where peptides were added.
Capa peptides cause mortality in M. persicae via feeding: At 120 hours, AH383 and AH387 peptides induce ˜60% mean (and median) lethality. Although mean lethality is lower with AH270/PEGAH270 (40%), 100% lethality is observed in one sample of 30 insects (AH270); and 90% in at least one sample of each of AH383, AH387 and PEGAH270 (FIG. 3). Note that PEGAH270 is a pegylated form of peptide AH270.

[6] = test system: bumblebees (Bombus terrestris); assay: Bumblebee acute oral toxicity test; type: in vivo
Procedure: Oral toxicity against bumblebees (Bombus terrestris) was determined as previously described:
OECD (2017), Test No. 247: Bumblebee, Acute Oral Toxicity Test, OECD Guidelines for the Testing of Chemicals, Section 2, OECD Publishing, Paris, https://doi.org/10.1787/9789264284128-en.
Example data are provided for peptides, AH56, AH257, AH259 in Tables 4, 5 below. […]
Data were acquired for: feeding behaviour—weight of liquid consumed pre- and post-treatment; lethality (days).
There was no negative impact on feeding behaviour from capa peptides. Acute bumblebee toxicity was also assessed for other peptide candidates including: AH270, PEG270. Overall, capa peptides are bee safe.

[7] = Table 11, individual bees, peptide 1 × 10 − 5M or Spirotetramat 25 uM, listed as AHPEG270

## H-(Me)L-YAFARV-NH2 (H-[NMeL]YAFARV-NH2; SMILES CN[C@@H](CC(C)C)C(=O)N[C@@H](Cc1ccc(O)cc1)C(=O)N[C@@H](C)C(=O)N[C@@H](Cc1ccccc1)C(=O)N[C@@H](C)C(=O)N[C@@H](CCCNC(=N)N)C(=O)N[C@H](C(N)=O)C(C)C) [AH383]
[1]; 10^−5 M
  Feeding Aphid, % lethality in population after adjustment for baseline: 10%
[2]; 72 hours treatment
  LD50: 10^−6 M
[2]
  % Lethality ± SEM: 80 ± 3%
[3]
  Feeding D. suzukii, % lethality in population after adjustment for baseline: 56%
[4]; 10^−4 M
  Spray Aphid, % lethality in population after adjustment for baseline: 42%
[4]; 10^−5 M
  Spray Aphid, % lethality in population after adjustment for baseline: 13%
[5]
  mean lethality: ~60%
  lethality observed in one sample of 30 insects: 90%

## H-ASGLVAFPRV-NH2 [Capa-2, reference compound]
[2]; control ('sham') treatment, not baseline adjusted
  lethality: 38%

## H-LY-(Me)A-FARV-NH2 (H-LY[NMeA]FARV-NH2; SMILES CC(C)C[C@H](N)C(=O)N[C@@H](Cc1ccc(O)cc1)C(=O)N(C)[C@@H](C)C(=O)N[C@@H](Cc1ccccc1)C(=O)N[C@@H](C)C(=O)N[C@@H](CCCNC(=N)N)C(=O)N[C@H](C(N)=O)C(C)C) [AH382]
[1]; 10^−5 M
  Feeding Aphid, % lethality in population after adjustment for baseline: 12%
[2]; 72 hours treatment
  LD50: 10^−6 M
[2]
  % Lethality ± SEM: 90 + 4%
[3]
  Feeding D. suzukii, % lethality in population after adjustment for baseline: 43%
[4]; 10^−4 M
  Spray Aphid, % lethality in population after adjustment for baseline: 49%
[4]; 10^−5 M
  Spray Aphid, % lethality in population after adjustment for baseline: 10%

## H-LY-Aib-FARV-NH2 (H-LY[Aib]FARV-NH2; SMILES CC(C)C[C@H](N)C(=O)N[C@@H](Cc1ccc(O)cc1)C(=O)NC(C)(C)C(=O)N[C@@H](Cc1ccccc1)C(=O)N[C@@H](C)C(=O)N[C@@H](CCCNC(=N)N)C(=O)N[C@H](C(N)=O)C(C)C) [AH387]
[1]; 10^−5 M
  Feeding Aphid, % lethality in population after adjustment for baseline: 14%
[1]; 10^−5 M, 60 h
  Feeding Aphid, % lethality in population after adjustment for baseline: 6 (35%
[3]
  Feeding D. suzukii, % lethality in population after adjustment for baseline: 62%
[4]; 10^−5 M
  Spray Aphid, % lethality in population after adjustment for baseline: 12%
[5]
  mean lethality: ~60%
  lethality observed in one sample of 30 insects: 90%

## H-LYAFARV-NH2 [AH188]
[1]; 10^−4 M
  Feeding Aphid, % lethality in population after adjustment for baseline: 23%
[1]; 10^−5 M
  Feeding Aphid, % lethality in population after adjustment for baseline: 23%
[1]; 10^−5 M, @72 h
  Feeding Aphid, % lethality in population after adjustment for baseline: 1 (33%@72 h)
[1]; 10^−6 M
  Feeding Aphid, % lethality in population after adjustment for baseline: 22%
[1]; 10^−7 M
  Feeding Aphid, % lethality in population after adjustment for baseline: 17%
[2]; 48 hours treatment
  LD50: 10^−6 M
[2]
  % Lethality ± SEM: 71 ± 6%
[3]
  Feeding D. suzukii, % lethality in population after adjustment for baseline: 71%
[3]; Peptide screening, Table 5, blank control 20.33
  D. suzukii (Mean% Lethality ± SD): 70.50%
[3]; Peptide screening, Table 5, difference in survival
  D. suzukii (Sig Diff Grp): ABC
[4]; 10^−4 M
  Spray Aphid, % lethality in population after adjustment for baseline: 2%
[5]; Peptide screening, Table 5
  M. persicae (% Lethality): 22%

## PEG-Ahx-LV-(Me)A-FPR-(Me)V-NH2 [PEGAH270, a pegylated form of peptide AH270]
[2]
  % Lethality ± SEM: 77 ± 4%
[6]; Table 11, group mean, n=10
  Liquid post exposure (weight), Mean: 0.8814 g
  liquid consumed per day post exposure, Mean: 0.2211 g
[6]; [7]
  Liquid post exposure (weight): 1.5744 g and 0.7150 g and 0.4326 g and 0.2731 g and 1.1763 g and 1.8061 g and 0.5676 g and 1.5696 g and 0.6889 g and 0.0102 g
  days alive: 4 days (9×) and 0 (approx 1 hr) days
  liquid consumed per day post exposure: 0.3936 g and 0.1788 g and 0.1082 g and 0.0683 g and 0.2941 g and 0.4515 g and 0.1419 g and 0.3924 g and 0.1722 g and 0.0102 g
[6]; in vivo, po
  safety towards B. terrestris in the bumblebee oral toxicity assay: safe
[5]
  mean lethality: 40%
  lethality observed in one sample of 30 insects: 90%
